Experimental data as given in patent US20130210846A1, “USE OF NOVEL PAN-CDK INHIBITORS FOR TREATING TUMORS” (BAYER INTELLECTUAL PROPERTY GMBH, priority 2010, published 2013).

What was measured:
HeLa = experiment: Proliferation assay HeLa; format: cell-based; conditions: Homo sapiens, 96 h, cervix carcinoma, 4 days, crystal violet
Protocol: (§1) Cultivated human tumor cells (originally obtained from ATCC, HeLa-MaTu and HeLa-MaTu-ADR, originally obtained from Epo GmbH, Berlin, Germany) were plated at a density of 1000 to 5000 cells/measuring point, depending on the growth rate of the cell line, in a 96-well multititer plate in 200 μl of growth medium (DMEM/HAMS F12, 2 mM L-glutamine, 10% fetal calf serum). After 24 hours the cells of one plate (zero-point plate) were stained with crystal violet (see below), whereas the medium of the other plates was replaced with fresh culture medium (200 μl), to which the test substances had been added at various concentrations (0 μM, and in the range 0.01-30 μM; the final concentration of the solvent dimethyl sulfoxide was 0.5%). The cells were incubated for 4 days in the presence of the test substances. Cellular proliferation was determined by staining the cells with crystal violet: the cells were fixed by adding 20 μl/measuring point of an 11% glutaraldehyde solution for 15 min at room temperature. After washing the fixed cells with water three times, the plates were dried at room temperature. The cells were stained by adding 100 μl/measuring point of a 0.1% crystal violet solution (pH adjusted to pH3 by adding acetic acid). After washing the stained cells with water three times, the plates were dried at room temperature. The dye was dissolved by adding 100 μl/measuring point of a 10% acetic acid solution. The extinction was determined photometrically at a wavelength of 595 nm. The percentage change in cell growth was calculated by standardization of the measured values to the extinction values of the zero-point plate (=0%) and the extinction of the untreated (0 μM) cells (=100%). The measured data were standardized to 0% inhibition (cell proliferation without inhibitor) and 100% inhibition (zero-point plate). The IC50 values were determined by means of a 4-parameter fit using the company's own software.
(§2) The substances were examined in the following cell lines which, in an exemplary manner, represent the stated indications: […]

CDK1/CycB = biological target: T1, CDK1/CycB (Homo sapiens, UniProt P06493); experiment: CDK1/CycB kinase assay (Assay 1); format: biochemical; conditions: 0.5 μM ATP, histon IIIS, 10 min 22° C.; read-out: CDK1/CycB (Assay 1) Concentration for half-maximal inhibition of the enzyme activity, IC50
T1 construct: purchased ProQinase GmbH, Freiburg, Germany; host or cells: baculovirus-infected insect cells (Sf9)
T1 sequence (P06493 whole entry): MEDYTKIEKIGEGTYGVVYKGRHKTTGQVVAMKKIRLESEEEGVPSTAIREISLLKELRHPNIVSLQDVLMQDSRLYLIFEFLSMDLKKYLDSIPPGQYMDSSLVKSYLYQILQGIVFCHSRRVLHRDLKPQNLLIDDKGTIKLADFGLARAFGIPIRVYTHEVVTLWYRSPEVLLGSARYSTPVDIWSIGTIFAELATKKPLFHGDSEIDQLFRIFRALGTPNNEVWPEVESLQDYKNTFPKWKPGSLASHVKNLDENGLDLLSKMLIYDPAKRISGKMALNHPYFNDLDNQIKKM
T1 sequence (P14635 whole entry partner): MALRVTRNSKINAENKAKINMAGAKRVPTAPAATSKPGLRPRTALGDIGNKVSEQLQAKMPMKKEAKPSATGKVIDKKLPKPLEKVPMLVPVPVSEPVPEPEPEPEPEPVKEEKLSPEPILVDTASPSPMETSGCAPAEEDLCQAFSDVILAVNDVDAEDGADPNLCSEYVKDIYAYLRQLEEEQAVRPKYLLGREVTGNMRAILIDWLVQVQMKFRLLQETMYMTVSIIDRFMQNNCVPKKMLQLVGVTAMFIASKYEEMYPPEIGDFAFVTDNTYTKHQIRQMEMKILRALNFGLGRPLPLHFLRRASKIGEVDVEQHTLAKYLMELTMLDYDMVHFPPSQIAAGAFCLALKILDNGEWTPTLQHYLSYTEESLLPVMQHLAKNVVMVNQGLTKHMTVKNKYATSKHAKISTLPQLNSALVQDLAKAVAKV
Protocol: Recombinant CDK1 and CycB-GST fusion proteins, purified from baculovirus-infected insect cells (Sf9), were purchased from ProQinase GmbH, Freiburg, Germany. The histon HIS used as kinase substrate is commercially available from Sigma.
CDK1/CycB (200 ng/measuring point) was incubated for 10 min at 22° C. in the presence of various concentrations of test substances (0 μM, and within the range 0.01-100 μM) in assay buffer [50 mM Tris/HCl pH8.0, 10 mM MgCl2, 0.1 mM Na ortho-vanadate, 1.0 mM dithiothreitol, 0.5 μM adenosine triphosphate (ATP), 10 μg/measuring point histon IIIS, 0.2 μCi/measuring point ^33P-gamma ATP, 0.05% NP40, 1.25% dimethyl sulfoxide]. The reaction was stopped by adding EDTA solution (250 mM, pH 8.0, 15 μl/measuring point).
(§3) From each reaction mixture, 15 μl were applied to P30 filter strips (from Wallac), and unincorporated ^33P-ATP was removed by washing the filter strips three times, for 10 min each time, in 0.5% phosphoric acid. After drying the filter strips for 1 hour at 70° C., the filter strips were covered with scintillator strips (MeltiLex™ A, from Wallac) and stoved for 1 hour at 90° C. The amount of incorporated ^33P (substrate phosphorylation) was determined by scintillation measurement in a gamma-radiation measuring instrument (Wallac). The measured data were standardized to 0% inhibition (enzyme reaction without inhibitor) and 100% inhibition (all assay components except enzyme). The IC50 values were determined by means of a 4-parameter fit using the company's own software.

[1] = biological target: T2, VEGF receptor tyrosine kinase-2 (VEGF-R2) (Homo sapiens, UniProt P35968); experiment: VEGF receptor-2 kinase assay (Assay 3); format: biochemical; conditions: 8 μM ATP, poly-(Glu4Tyr), 10 min 22° C.; read-out: VEGF-R2 (Assay 3) Concentration for half-maximal inhibition of the enzyme activity, IC50
T2 construct: GST; made in house; host or cells: baculovirus-infected insect cells (Sf9)
T2 sequence (P35968 20-1356, species assumed): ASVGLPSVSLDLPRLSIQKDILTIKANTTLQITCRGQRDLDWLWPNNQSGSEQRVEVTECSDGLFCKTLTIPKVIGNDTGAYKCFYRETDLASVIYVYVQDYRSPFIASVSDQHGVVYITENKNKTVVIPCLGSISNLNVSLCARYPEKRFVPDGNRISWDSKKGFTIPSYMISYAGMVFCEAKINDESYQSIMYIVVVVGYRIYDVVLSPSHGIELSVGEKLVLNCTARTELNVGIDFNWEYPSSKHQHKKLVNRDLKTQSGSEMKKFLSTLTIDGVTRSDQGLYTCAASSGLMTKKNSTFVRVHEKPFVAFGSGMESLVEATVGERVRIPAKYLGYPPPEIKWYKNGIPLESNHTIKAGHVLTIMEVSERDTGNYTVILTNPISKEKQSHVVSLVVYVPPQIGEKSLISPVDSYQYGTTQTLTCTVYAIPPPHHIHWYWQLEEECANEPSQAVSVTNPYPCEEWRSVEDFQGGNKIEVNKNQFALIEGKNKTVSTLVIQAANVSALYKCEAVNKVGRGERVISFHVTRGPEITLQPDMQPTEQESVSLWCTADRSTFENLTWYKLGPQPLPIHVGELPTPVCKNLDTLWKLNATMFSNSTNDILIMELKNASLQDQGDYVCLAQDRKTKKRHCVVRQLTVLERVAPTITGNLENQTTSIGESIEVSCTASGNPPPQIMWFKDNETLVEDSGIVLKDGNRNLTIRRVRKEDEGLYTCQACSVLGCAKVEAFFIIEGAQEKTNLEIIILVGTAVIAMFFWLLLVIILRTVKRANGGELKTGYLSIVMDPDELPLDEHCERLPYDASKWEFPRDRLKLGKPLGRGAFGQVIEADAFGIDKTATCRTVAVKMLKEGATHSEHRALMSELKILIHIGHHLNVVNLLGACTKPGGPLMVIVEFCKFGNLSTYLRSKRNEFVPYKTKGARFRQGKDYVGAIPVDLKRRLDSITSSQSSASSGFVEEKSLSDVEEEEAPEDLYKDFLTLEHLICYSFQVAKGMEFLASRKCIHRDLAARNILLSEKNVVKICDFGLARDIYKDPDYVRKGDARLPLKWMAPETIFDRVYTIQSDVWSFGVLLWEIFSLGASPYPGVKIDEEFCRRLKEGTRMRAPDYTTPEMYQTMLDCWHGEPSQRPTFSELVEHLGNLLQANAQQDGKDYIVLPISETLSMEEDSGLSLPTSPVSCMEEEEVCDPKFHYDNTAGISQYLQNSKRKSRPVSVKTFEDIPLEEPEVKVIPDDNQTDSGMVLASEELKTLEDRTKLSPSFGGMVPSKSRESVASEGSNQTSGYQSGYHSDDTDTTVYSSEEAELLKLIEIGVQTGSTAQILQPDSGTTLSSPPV
Protocol: Recombinant VEGF receptor tyrosine kinase-2 was purified as GST fusion protein from baculovirus-infected insect cells (Sf9). Poly-(Glu4Tyr), used as kinase substrate, was purchased from Sigma.
VEGF receptor tyrosine kinase (90 ng/measuring point) was incubated for 10 min at 22° C. in the presence of various concentrations of test substances (0 μM, and within the range 0.001-30 μM) in 30 μl assay buffer [40 mM Tris/HCl pH5.5, 10 mM MgCl2, 1 mM MnCl2, 3 μM Na ortho-vanadate, 1.0 mM dithiothreitol, 8 μM adenosine triphosphate (ATP), 0.96 μg/measuring point poly-(Glu4Tyr), 0.2 μCi/measuring point ^33P-gamma ATP, 1.4% dimethyl sulfoxide]. The reaction was stopped by adding EDTA solution (250 mM, pH 8.0, 15 μl/measuring point).
as §3, with “μl was” for “μl were”

HCT116 = experiment: Proliferation assay HCT116; format: cell-based; conditions: Homo sapiens, HCT-116, 96 h; HCT116, colon/rectum carcinoma; 4 days, crystal violet
Protocol: as §1, §2

SW480 = experiment: Proliferation assay SW480; format: cell-based; conditions: Homo sapiens, 96 h; SW480, colon/rectum carcinoma; 4 days, crystal violet
Protocol: as §1, §2

CDK2/CycE = biological target: T3, CDK2/CycE (Homo sapiens, UniProt P24941); experiment: CDK2/CycE kinase assay (Assay 2); format: biochemical; conditions: 0.5 μM ATP, histon IIIS, 10 min 22° C.; read-out: CDK2/CycE (Assay 2) Concentration for half-maximal inhibition of the enzyme activity, IC50
T3 construct: purchased ProQinase GmbH, Freiburg, Germany; host or cells: baculovirus-infected insect cells (Sf9)
Protocol: Recombinant CDK2 and CycE-GST fusion proteins, purified from baculovirus-infected insect cells (Sf9), were purchased from ProQinase GmbH, Freiburg, Germany. Histon HIS, used as kinase substrate, was purchased from Sigma.
The reaction was stopped by adding EDTA solution (250 mM, pH 8.0, 15 μl/measuring point).
as §3, with “μl was” for “μl were”, “(Wallac). […]” for “(Wallac). The measured data were standardized to 0% inhibition (enzyme reaction without inhibitor) and 100% inhibition (all assay components except enzyme).”

Caco-2 = experiment: Proliferation assay Caco-2; format: cell-based, human; conditions: Caco-2, colon/rectum carcinoma, 4 days, crystal violet
Protocol: as §1, §2

NCI-H460 = experiment: Proliferation assay NCI-H460; format: cell-based, human; conditions: NCI-H460, non-small-cell bronchial carcinoma, 4 days, crystal violet
Protocol: as §1, §2

DU145 = experiment: Proliferation assay DU145; format: cell-based, human; conditions: DU145, prostate carcinoma, 4 days, crystal violet
Protocol: as §1, §2

HeLa-MaTu = experiment: Proliferation assay HeLa-MaTu; format: cell-based, human; conditions: cervix carcinoma, 4 days, crystal violet
Protocol: as §1, §2

MCF7 = experiment: Proliferation assay MCF7; format: cell-based, human; conditions: MCF7, estrogen receptor-positive mamma carcinoma, 4 days, crystal violet
Protocol: as §1, §2

HeLa-MaTu-ADR = experiment: Proliferation assay HeLa-MaTu-ADR; format: cell-based, human; conditions: cervix carcinoma, 4 days, crystal violet
Protocol: as §1, §2

IC50 (HeLa) [nM] | IC50 (CDK1/CycB) [nM] | IC50 [1] [nM] | IC50 (HCT116) [nM] | IC50 (SW480) [nM] | IC50 (CDK2/CycE) [nM] | IC50 (Caco-2; Homo sapiens, Caco-2, 96 h) [nM] | IC50 (NCI-H460; Homo sapiens, NCI-H460, 96 h) [nM] | IC50 (DU145; Homo sapiens, DU-145, 96 h) [nM] | IC50 (HeLa-MaTu; Homo sapiens, 96 h) [nM] | IC50 (MCF7; Homo sapiens, MCF7, 96 h) [nM] | IC50 (HeLa-MaTu-ADR; Homo sapiens, 96 h) [nM] | IC50 (Caco-2) [nM] | IC50 (NCI-H460) [nM] | IC50 (MCF7) [nM] | IC50 (DU145) [nM] | IC50 (HeLa-MaTu) [nM] | IC50 (HeLa-MaTu-ADR) [nM] | Structure (SMILES)
25 | 3 | 81 | 17 | 31 | 4 |  |  |  |  |  |  |  |  |  |  |  |  | C[C@@H](O)[C@@H](C)Nc1nc(Nc2ccc(S(C)(=N)=O)cc2)ncc1C(F)(F)F (single isomer, unassigned) [Example 8-SI-2]
 | 13 |  |  |  | 10 | 98 | 113 | 76 | 70 | 70 | 63 |  |  |  |  |  |  | C[C@@H](Oc1nc(Nc2ccc(S(C)(=N)=O)cc2)ncc1C(F)(F)F)C(C)(C)O (mixture of isomers) [Example 3, (RS)—S-(4-{[4-{[(R)-2-Hydroxy-1,2-dimethylpropyl]oxy}-5-(trifluoromethyl)pyrimidin-2-yl]-amino}phenyl)-S-methylsulfoximide]
 | 4 | 158 |  |  | 5 |  |  |  | 20 |  |  |  |  |  |  |  |  | C[C@@H](Nc1nc(Nc2ccc(S(C)(=N)=O)cc2)ncc1C(F)(F)F)C(C)(C)O (single isomer, unassigned) [Example 9-SI-1]
32 | 5 | 71 | 24 |  | 5 |  |  | 197 | 10 |  | 18 | 26 | 24 | 26 |  |  |  | CCS(=N)(=O)c1ccc(Nc2ncc(C(F)(F)F)c(N[C@H](C)[C@@H](C)O)n2)cc1 (mixture of isomers) [Example 6-SI-2, (RS)—S-Ethyl-S-(4-{[4-{[(1R,2R)-2-hydroxy-1-methylpropyl]amino}-5-(trifluoromethyl)-pyrimidin-2-yl]amino}phenyl)sulfoximide]
 | 5 | 84 |  |  | 6 |  |  |  | 12 |  |  |  |  |  |  |  |  | C[C@@H](O)[C@@H](C)Oc1nc(Nc2ccc(S(C)(=N)=O)cc2)ncc1C(F)(F)F (single isomer, unassigned) [Example 2-SI-1]
33 | 7 | 136 | 17 | 45 | 5 |  |  |  |  |  |  |  |  |  |  |  |  | CCS(=N)(=O)c1ccc(Nc2ncc(C(F)(F)F)c(N[C@H](C)C(C)(C)O)n2)cc1 (single isomer, unassigned) [Example 7-SI-2]
 | 25 | 70 |  |  | 8 |  |  |  |  | 33 |  | 112 | 70 |  | 107 | 22 | 63 | C[C@@H](Nc1nc(Nc2ccc(S(=N)(=O)C3CC3)cc2)ncc1C(F)(F)F)C(C)(C)O (mixture of isomers) [Example 5-SI-1, (RS)—S-Cyclopropyl-S-(4-{[4-{[(R)-2-hydroxy-1,2-dimethylpropyl]amino}-5-(trifluoromethyl)-pyrimidin-2-yl]amino}phenyl)sulfoximide]
 | 11 | 116 |  |  | 6 | 32 | 30 |  | 14 | 44 | 30 |  |  |  |  |  |  | C[C@@H](O)[C@@H](C)Nc1nc(Nc2ccc(S(C)(=N)=O)cc2)ncc1C(F)(F)F (single isomer, unassigned) [Example 8-SI-1]
50 | 9 | 82 | 28 |  | 8 |  |  |  |  |  |  | 42 | 33 | 34 | 26 | 10 | 24 | C[C@@H](Nc1nc(Nc2ccc(S(=N)(=O)C3CC3)cc2)ncc1C(F)(F)F)C(C)(C)O (mixture of isomers) [Example 5-SI-2, (RS)—S-Cyclopropyl-S-(4-{[4-{[(R)-2-hydroxy-1,2-dimethylpropyl]amino}-5-(trifluoromethyl)-pyrimidin-2-yl]amino}phenyl)sulfoximide]
